The subject of one assay is C57BL/6J mice. Nature of the assay: Antibody ELISA of sera from immunized mice. Type of assay: in vivo. Particulars: listed in rank order. The protocol:
Briefly, Immulon 4 HBX 96-well plates for ELISA are obtained from Thermo Fisher Scientific (Waltham, Mass.). The plate is coated with 1 μg/well of either a pool of peptides or individual peptides in coating buffer (50 mM sodium carbonate, pH 9.6) overnight at 4° C. After the coating buffer is removed, the plate is blocked with 2% BSA in PBS for 1 hour at room temperature, followed by washing three times with 0.5% Tween in PBS (PBST). Sera are diluted 1:200 in PBS and added to each well and the plate is incubated for 2 hours at room temperature. After incubation, the plate is washed three times with PBST. The secondary antibody is conjugated with HRP, and iss added at a 1:10,000 dilution in PBS. The plate is incubated for 1 hour at room temperature. After washing three times with PBST, TMBE-100 peroxidase substrate (Rockland Immunochemicals, Inc., Limerick, Pa.) is added, followed by 30 minutes incubation at room temperature. Finally, the enzymatic reaction is stopped by adding 2M H2SO4. Optical density at 450 nm (OD450) is read within 15 minutes after adding H2SO4 using a Spectramax® ABS Plus microplate reader (Molecular Devices, San Jose, Calif.) and the SoftMax® 7 Pro Software. […]
(In an ELISA, binding on a coated surface is turned into a signal by an enzyme label.)

The subject of assay [1] is golden Syrian hamsters. Nature of the assay: IFN-γ ELISPOT of spleen and lymph node cells from immunized hamsters. Format: in vivo. Particulars: listed in rank order.
Assay [2] deals with golden Syrian hamsters. Nature of the assay: Peptide-specific antibody ELISA of sera from immunized hamsters. Type of assay: in vivo. The note with it: listed in rank order. The protocol:
Female golden Syrian hamsters (Charles River Laboratories, Wilmington, Mass.) are immunized with a 2-dose regimen with a 14-day interval between doses. Two weeks after the second dose, hamsters are euthanized. Hamster blood is collected by cardiac puncture and serum is prepared for the quantification of peptide-specific antibodies by an in-house indirect ELISA method. Spleens and draining lymph nodes serve as a source of cells for the IFN-γ ELISPOT and other assays. Unless otherwise noted, water-in-oil emulsions are administered subcutaneously, all other adjuvant formulations are administered intramuscularly.
A total of 52 peptides are tested for immunogenicity. Antibody responses in hamster sera specimens to individual peptides or peptide pools are quantified by ELISA.
Briefly, Immulon 4 HBX 96-well plates for ELISA are obtained from Thermo Fisher Scientific (Waltham, Mass.). The plate is coated with 1 μg/well of either a pool of peptides or individual peptides in coating buffer (50 mM sodium carbonate, pH 9.6) overnight at 4° C. […] Optical density at 450 nm (OD450) is read within 15 minutes after adding H2SO4 using a Spectramax® ABS Plus microplate reader (Molecular Devices, San Jose, Calif.) and the SoftMax® 7 Pro Software.

Another assay concerns rVSV-SARS-CoV-2-S virus. Particulars: in vivo.

Take PQIQLAVTRMENAVGRD [ORF9b.1*11]: the “Mice ELISA: top 10 immunogenic peptides, ranked on magnitude of responses” value with C57BL/6J mice was “ORF9b.1*11”. Also, the “Hamsters ELISPOT: top 10 immunogenic peptides, ranked on magnitude of responses” value in the assay with golden Syrian hamsters [1] is given as “ORF9b.1*11”. In addition, the “Hamsters ELISA: top 10 immunogenic peptides, ranked on magnitude of responses” value with golden Syrian hamsters [2] is “ORF9b.1*11”.

“SRIGMEVTPSGTWLTYTGAIKLDDKDPNFKDQVILLNKHIDAYK (N-overlap Long)”: the “neutralization activity of peptide-specific antibody” value in the assay on rVSV-SARS-CoV-2-S virus was “non-specific background”.

Consider YFTSDYYQLYSTQLSTDTGV [ORF3a], for which the “Mice ELISA: top 10 immunogenic peptides, ranked on magnitude of responses” value in the assay with C57BL/6J mice is reported as “ORF3a”. The “Hamsters ELISPOT: top 10 immunogenic peptides, ranked on magnitude of responses” value in the assay on golden Syrian hamsters [1] is given as “ORF3a”. Also, the “Hamsters ELISA: top 10 immunogenic peptides, ranked on magnitude of responses” value in the assay on golden Syrian hamsters [2] is reported as “ORF3a”.

The values above are taken from patent US12653880B2, “SARS-CoV-2 polypeptides” (priority 2021, dated 2026).
